Assay results published in ChEMBL document CHEMBL5113398, “Design and synthesis of new quinoline derivatives as selective C-RAF kinase inhibitors with potent anticancer activity” (Eur J Med Chem, 2022).
Each block holds one compound with its values, some of them ahead of it.

Columns and labels:
MDA-MB-435 [1] = assay: Anticancer activity against human MDA-MB-435 cells assessed as cell growth inhibition incubated for 48 hrs by SRB assay; assay type: functional
K562 = assay: Anticancer activity against human K562 cells assessed as total cell growth inhibition incubated for 48 hrs by SRB assay; assay type: functional
RXF 393 = assay: Anticancer activity against human RXF 393 cells assessed as total cell growth inhibition incubated for 48 hrs by SRB assay; assay type: functional
ACHN = assay: Anticancer activity against human ACHN cells assessed as cell growth inhibition incubated for 48 hrs by SRB assay; assay type: functional
786-0 [2] = assay: Anticancer activity against human 786-0 cells assessed as total cell growth inhibition incubated for 48 hrs by SRB assay; assay type: functional
[3] = molecular target: Serine/threonine-protein kinase A-Raf (Homo sapiens) (UniProt P10398); assay: Inhibition of A-Raf (unknown origin) at 1 uM in presence of ATP by hotspot kinase assay
Chain of Serine/threonine-protein kinase A-Raf (Homo sapiens) (P10398 whole entry): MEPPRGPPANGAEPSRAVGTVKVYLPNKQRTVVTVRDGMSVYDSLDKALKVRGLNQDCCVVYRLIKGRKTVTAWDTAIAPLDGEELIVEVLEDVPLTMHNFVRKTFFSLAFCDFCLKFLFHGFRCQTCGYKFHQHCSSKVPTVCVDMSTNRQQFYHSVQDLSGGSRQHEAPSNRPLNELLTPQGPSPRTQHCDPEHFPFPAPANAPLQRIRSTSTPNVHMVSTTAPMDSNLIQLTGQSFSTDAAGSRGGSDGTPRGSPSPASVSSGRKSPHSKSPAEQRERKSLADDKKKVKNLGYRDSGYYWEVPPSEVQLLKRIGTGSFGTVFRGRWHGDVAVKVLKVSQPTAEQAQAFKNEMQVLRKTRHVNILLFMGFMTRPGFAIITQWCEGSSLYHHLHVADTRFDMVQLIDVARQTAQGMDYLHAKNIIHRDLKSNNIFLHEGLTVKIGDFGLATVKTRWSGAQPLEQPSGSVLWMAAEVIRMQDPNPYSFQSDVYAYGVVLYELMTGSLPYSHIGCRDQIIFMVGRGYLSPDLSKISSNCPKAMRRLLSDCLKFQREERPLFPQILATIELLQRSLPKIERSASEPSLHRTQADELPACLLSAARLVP

HCT-15 = assay: Anticancer activity against human HCT-15 cells assessed as total cell growth inhibition incubated for 48 hrs by SRB assay; assay type: functional
SN12C = assay: Anticancer activity against human SN12C cells assessed as cell growth inhibition incubated for 48 hrs by SRB assay; assay type: functional
DU-145 = assay: Anticancer activity against human DU-145 cells assessed as cell growth inhibition incubated for 48 hrs by SRB assay; assay type: functional
Hs-578T = assay: Anticancer activity against human Hs-578T cells assessed as total cell growth inhibition incubated for 48 hrs by SRB assay; assay type: functional
OVCAR-8 = assay: Anticancer activity against human OVCAR-8 cells assessed as total cell growth inhibition incubated for 48 hrs by SRB assay; assay type: functional
KM12 = assay: Anticancer activity against human KM12 cells assessed as total cell growth inhibition incubated for 48 hrs by SRB assay; assay type: functional
M14 = assay: Anticancer activity against human M14 cells assessed as total cell growth inhibition incubated for 48 hrs by SRB assay; assay type: functional
NCI-H322M = assay: Anticancer activity against human NCI-H322M cells assessed as total cell growth inhibition incubated for 48 hrs by SRB assay; assay type: functional
Homo sapiens = species on record: Homo sapiens; assay: Inhibition of ABL (unknown origin) at 1 uM in presence of ATP by hotspot kinase assay
NCI-H460 = assay: Anticancer activity against human NCI-H460 cells assessed as cell growth inhibition incubated for 48 hrs by SRB assay; assay type: functional
SNB-75 = assay: Anticancer activity against human SNB-75 cells assessed as total cell growth inhibition incubated for 48 hrs by SRB assay; assay type: functional
HOP-92 [4] = assay: Anticancer activity against human HOP-92 cells assessed as cell growth inhibition incubated for 48 hrs by SRB assay; assay type: functional
[5] = molecular target: RAF proto-oncogene serine/threonine-protein kinase (Homo sapiens, UniProt P04049); assay: Inhibition of c-Raf (unknown origin) in presence of ATP by hotspot kinase assay
Chain of RAF proto-oncogene serine/threonine-protein kinase (P04049 whole entry): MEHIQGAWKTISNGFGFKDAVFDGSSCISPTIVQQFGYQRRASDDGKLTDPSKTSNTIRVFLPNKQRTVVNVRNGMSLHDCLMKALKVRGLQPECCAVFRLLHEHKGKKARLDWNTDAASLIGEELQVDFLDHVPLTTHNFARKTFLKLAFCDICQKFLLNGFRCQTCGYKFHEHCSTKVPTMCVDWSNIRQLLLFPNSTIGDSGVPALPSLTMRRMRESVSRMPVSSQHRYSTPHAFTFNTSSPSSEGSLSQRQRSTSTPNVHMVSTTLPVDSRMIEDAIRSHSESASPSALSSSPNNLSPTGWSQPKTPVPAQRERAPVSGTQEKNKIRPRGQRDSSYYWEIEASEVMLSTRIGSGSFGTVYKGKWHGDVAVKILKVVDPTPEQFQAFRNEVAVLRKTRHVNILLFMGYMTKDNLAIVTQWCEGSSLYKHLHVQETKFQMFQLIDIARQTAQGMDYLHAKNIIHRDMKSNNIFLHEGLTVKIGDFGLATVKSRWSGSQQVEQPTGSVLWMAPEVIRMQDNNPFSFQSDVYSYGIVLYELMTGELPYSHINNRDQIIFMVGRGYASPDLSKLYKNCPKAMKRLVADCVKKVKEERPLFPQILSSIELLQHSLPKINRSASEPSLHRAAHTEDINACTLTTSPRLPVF

HOP-92 [6] = assay: Anticancer activity against human HOP-92 cells assessed as total cell growth inhibition incubated for 48 hrs by SRB assay; assay type: functional
[7] = molecular target: Dual specificity mitogen-activated protein kinase kinase 2 (Homo sapiens) (UniProt P36507); assay: Inhibition of MEK2 (unknown origin) at 1 uM in presence of ATP by hotspot kinase assay
Chain of Dual specificity mitogen-activated protein kinase kinase 2 (Homo sapiens) (P36507 whole entry): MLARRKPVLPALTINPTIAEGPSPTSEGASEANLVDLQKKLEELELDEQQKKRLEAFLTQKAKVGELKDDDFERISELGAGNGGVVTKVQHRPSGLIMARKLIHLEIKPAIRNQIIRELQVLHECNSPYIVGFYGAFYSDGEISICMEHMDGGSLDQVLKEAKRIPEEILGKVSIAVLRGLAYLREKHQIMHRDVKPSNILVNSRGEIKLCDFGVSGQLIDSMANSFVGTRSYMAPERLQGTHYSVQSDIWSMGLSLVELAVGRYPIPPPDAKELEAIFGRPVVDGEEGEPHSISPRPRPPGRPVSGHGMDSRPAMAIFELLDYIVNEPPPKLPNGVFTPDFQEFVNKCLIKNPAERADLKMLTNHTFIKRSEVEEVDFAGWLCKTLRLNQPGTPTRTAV

OVCAR-3 = assay: Anticancer activity against human OVCAR-3 cells assessed as cell growth inhibition incubated for 48 hrs by SRB assay; assay type: functional
HCT-116 = assay: Anticancer activity against human HCT-116 cells assessed as cell growth inhibition incubated for 48 hrs by SRB assay; assay type: functional
UACC-257 = assay: Anticancer activity against human UACC-257 cells assessed as cell growth inhibition incubated for 48 hrs by SRB assay; assay type: functional
SK-OV-3 = assay: Anticancer activity against human SK-OV-3 cells assessed as cell growth inhibition incubated for 48 hrs by SRB assay; assay type: functional
HCC 2998 = assay: Anticancer activity against human HCC 2998 cells assessed as cell growth inhibition incubated for 48 hrs by SRB assay; assay type: functional
786-0 [8] = assay: Anticancer activity against human 786-0 cells assessed as cell growth inhibition incubated for 48 hrs by SRB assay; assay type: functional
CAKI-1 = assay: Anticancer activity against human CAKI-1 cells assessed as total cell growth inhibition incubated for 48 hrs by SRB assay; assay type: functional
[9] = molecular target: Dual specificity mitogen-activated protein kinase kinase 1 (Homo sapiens) (UniProt Q02750); assay: Inhibition of MEK1 (unknown origin) at 1 uM in presence of ATP by hotspot kinase assay
Chain of Dual specificity mitogen-activated protein kinase kinase 1 (Homo sapiens) (Q02750 whole entry): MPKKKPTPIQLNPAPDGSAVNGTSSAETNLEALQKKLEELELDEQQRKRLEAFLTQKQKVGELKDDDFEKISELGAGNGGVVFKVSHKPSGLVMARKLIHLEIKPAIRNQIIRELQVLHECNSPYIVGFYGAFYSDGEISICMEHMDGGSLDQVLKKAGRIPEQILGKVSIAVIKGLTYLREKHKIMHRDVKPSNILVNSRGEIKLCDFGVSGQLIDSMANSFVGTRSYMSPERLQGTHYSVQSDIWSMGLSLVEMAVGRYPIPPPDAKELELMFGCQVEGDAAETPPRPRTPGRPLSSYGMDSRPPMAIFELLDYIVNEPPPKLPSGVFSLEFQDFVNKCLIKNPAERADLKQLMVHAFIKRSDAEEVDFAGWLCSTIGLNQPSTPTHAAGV

CCRF-CEM = assay: Anticancer activity against human CCRF-CEM cells assessed as total cell growth inhibition incubated for 48 hrs by SRB assay; assay type: functional
MDA-MB-435 [10] = assay: Anticancer activity against human MDA-MB-435 cells assessed as total cell growth inhibition incubated for 48 hrs by SRB assay; assay type: functional
NCI-H226 = assay: Anticancer activity against human NCI-H226 cells assessed as cell growth inhibition incubated for 48 hrs by SRB assay; assay type: functional
[11] = molecular target: Platelet-derived growth factor receptor alpha (Homo sapiens) (UniProt P16234); assay: Inhibition of PDGFRalpha (unknown origin) at 1 uM in presence of ATP by hotspot kinase assay
Chain of Platelet-derived growth factor receptor alpha (Homo sapiens) (P16234 whole entry): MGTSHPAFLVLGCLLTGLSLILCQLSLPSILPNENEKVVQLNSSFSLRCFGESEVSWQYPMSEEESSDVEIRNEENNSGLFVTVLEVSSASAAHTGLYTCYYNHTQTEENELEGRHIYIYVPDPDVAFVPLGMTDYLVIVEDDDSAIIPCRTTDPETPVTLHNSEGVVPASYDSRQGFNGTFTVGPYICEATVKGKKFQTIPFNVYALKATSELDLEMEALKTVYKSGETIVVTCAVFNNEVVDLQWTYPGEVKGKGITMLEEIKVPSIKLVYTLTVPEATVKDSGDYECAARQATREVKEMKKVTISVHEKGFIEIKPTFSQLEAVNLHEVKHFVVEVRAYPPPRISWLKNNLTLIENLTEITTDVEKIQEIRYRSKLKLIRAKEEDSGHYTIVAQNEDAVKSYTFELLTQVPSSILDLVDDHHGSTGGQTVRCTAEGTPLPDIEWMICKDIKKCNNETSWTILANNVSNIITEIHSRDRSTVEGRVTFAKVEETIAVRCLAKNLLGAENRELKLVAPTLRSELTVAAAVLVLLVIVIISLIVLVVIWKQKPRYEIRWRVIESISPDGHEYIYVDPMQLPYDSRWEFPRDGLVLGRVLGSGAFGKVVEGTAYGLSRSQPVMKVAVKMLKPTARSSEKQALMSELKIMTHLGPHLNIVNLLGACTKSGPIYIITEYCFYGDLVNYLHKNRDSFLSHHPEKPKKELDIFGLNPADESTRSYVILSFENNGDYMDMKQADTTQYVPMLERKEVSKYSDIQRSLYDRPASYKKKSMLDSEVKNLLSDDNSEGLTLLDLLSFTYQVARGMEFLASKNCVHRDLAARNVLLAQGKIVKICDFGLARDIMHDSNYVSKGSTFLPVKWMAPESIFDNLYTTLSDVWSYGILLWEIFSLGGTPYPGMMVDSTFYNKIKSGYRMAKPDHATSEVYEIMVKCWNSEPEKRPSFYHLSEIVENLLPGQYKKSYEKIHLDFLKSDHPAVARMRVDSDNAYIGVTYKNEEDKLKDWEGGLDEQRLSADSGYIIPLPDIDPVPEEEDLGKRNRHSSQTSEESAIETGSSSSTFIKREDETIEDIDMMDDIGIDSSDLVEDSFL

MOLT-4 = assay: Anticancer activity against human MOLT-4 cells assessed as total cell growth inhibition incubated for 48 hrs by SRB assay; assay type: functional
SW-620 = assay: Anticancer activity against human SW-620 cells assessed as total cell growth inhibition incubated for 48 hrs by SRB assay; assay type: functional
OVCAR-4 = assay: Anticancer activity against human OVCAR-4 cells assessed as cell growth inhibition incubated for 48 hrs by SRB assay; assay type: functional
[12] = Apparent permeability across apical to basolateral side in human Caco-2 cells assessed as drug recovery at pH 6.5 to 7.4; assay type: ADME, cell-based; conditions: Caco-2, pH 6.5, read-out: Drug recovery
RPMI-8226 [13] = assay: Induction of apoptosis in human RPMI-8226 assessed as fold increase in caspase-3/7 activity at 1.68 uM; assay type: functional
RPMI-8226 [14] = assay: Induction of necrosis in human RPMI-8226 cells assessed as LDH release at 1.68 uM; assay type: functional
RPMI-8226 [15] = assay: Induction of necrosis in human RPMI-8226 cells assessed as LDH release at 0.84 uM; assay type: functional
RPMI-8226 [16] = assay: Induction of necrosis in human RPMI-8226 cells assessed as LDH release at 2.12 uM; assay type: functional
RPMI-8226 [17] = assay: Induction of apoptosis in human RPMI-8226 assessed as fold increase in caspase-3/7 activity at 2.12 uM; assay type: functional
RPMI-8226 [18] = assay: Induction of apoptosis in human RPMI-8226 assessed as fold increase in caspase-3/7 activity at 0.84 uM; assay type: functional
[19] = Apparent permeability of the compound from apical to basolateral side in human Caco-2 cells at pH 6.5 to 7.4; assay type: ADME, cell-based; conditions: Caco-2, pH 6.5

GI50 (MDA-MB-435 [1]): 1.94 µM | GI50 (ACHN): 2.03 µM | inhibition [3]: -6.33% | GI50 (DU-145): 2.69 µM | inhibition (Homo sapiens): -5.6% | GI50 (NCI-H460): 1.65 µM | IC50 [5]: 0.082 µM | inhibition [7]: 17.3% | GI50 (OVCAR-3): 1.52 µM | GI50 (HCT-116): 10.8 µM | GI50 (SK-OV-3): 3.34 µM | GI50 (HCC 2998): 11.1 µM | GI50 (786-0 [8]): 1.89 µM | inhibition [9]: 21.7% | GI50 (NCI-H226): 1.86 µM | inhibition [11]: 23.2% | GI50 (OVCAR-4): 0.58 µM
Compound: COc1cc2cc(Oc3ccc(NC(=O)Nc4ccc(Cl)c(C(F)(F)F)c4)cc3)c(C)nc2cc1OCCN1CCOCC1
TGI (K562): 6.95 µM | TGI (RXF 393): 3.99 µM | TGI (786-0 [2]): 4.15 µM | TGI (HCT-15): 3.18 µM | GI50 (SN12C): 2.56 µM | TGI (Hs-578T): 5.11 µM | TGI (OVCAR-8): > 100 µM | TGI (KM12): 5.3 µM | TGI (M14): 3.45 µM | TGI (NCI-H322M): 11.2 µM | TGI (SNB-75): 7.05 µM | GI50 (HOP-92 [4]): 1.66 µM | TGI (HOP-92 [6]): 6.17 µM | GI50 (UACC-257): 1.57 µM | TGI (CAKI-1): 10.8 µM | TGI (CCRF-CEM): > 100 µM | TGI (MDA-MB-435 [10]): 4.1 µM | TGI (MOLT-4): 10.5 µM | TGI (SW-620): 5.52 µM

GI50 (MDA-MB-435 [1]): 1.9 µM | GI50 (ACHN): 1.53 µM | inhibition [3]: 1.23% | recovery [12]: 74% | GI50 (DU-145): 1.93 µM | inhibition (Homo sapiens): -2.3% | GI50 (NCI-H460): 1.66 µM | IC50 [5]: 0.193 µM | inhibition [7]: 16.4% | GI50 (OVCAR-3): 1.43 µM | GI50 (HCT-116): 1.42 µM | GI50 (SK-OV-3): 2.09 µM | GI50 (HCC 2998): 2.09 µM | Papp A→B [19]: 0.4 ×10⁻⁶ cm/s | GI50 (786-0 [8]): 1.28 µM | inhibition [9]: 25.5% | GI50 (NCI-H226): 1.6 µM | inhibition [11]: 26.9% | GI50 (OVCAR-4): 1.88 µM
Compound: COc1cc2cc(Oc3ccc(NC(=O)Nc4cc(C(F)(F)F)cc(C(F)(F)F)c4)cc3)c(C)nc2cc1OCCN1CCOCC1
TGI (K562): 5.5 µM | TGI (RXF 393): 2.99 µM | TGI (786-0 [2]): 3.65 µM | fold change (FC) (RPMI-8226 [13]): 2.68 | TGI (HCT-15): 2.77 µM | GI50 (SN12C): 1.49 µM | Activity (RPMI-8226 [14]): 23.4% | TGI (Hs-578T): 7 µM | TGI (OVCAR-8): 12.8 µM | TGI (KM12): 5.95 µM | TGI (M14): 5.88 µM | TGI (NCI-H322M): 6.87 µM | Activity (RPMI-8226 [15]): 9.5% | TGI (SNB-75): 4.48 µM | Activity (RPMI-8226 [16]): 31.65% | GI50 (HOP-92 [4]): 0.9 µM | fold change (FC) (RPMI-8226 [17]): 2.84 | TGI (HOP-92 [6]): 2.71 µM | GI50 (UACC-257): 1.4 µM | fold change (FC) (RPMI-8226 [18]): 1.97 | TGI (CAKI-1): 5.68 µM | TGI (CCRF-CEM): 6.57 µM | TGI (MDA-MB-435 [10]): 6.72 µM | TGI (MOLT-4): 4.29 µM | TGI (SW-620): 7.17 µM

GI50 (MDA-MB-435 [1]): 1.91 µM | GI50 (ACHN): 2.3 µM | GI50 (DU-145): 3.5 µM | inhibition (Homo sapiens): -0.53% | GI50 (NCI-H460): 1.96 µM | IC50 [5]: 0.067 µM | inhibition [7]: 10.4% | GI50 (OVCAR-3): 2.94 µM | GI50 (HCT-116): 1.11 µM | GI50 (SK-OV-3): 3.76 µM | GI50 (HCC 2998): 5.34 µM | GI50 (786-0 [8]): 1.73 µM | inhibition [9]: 13.1% | GI50 (NCI-H226): 2.55 µM | inhibition [11]: 18.3% | GI50 (OVCAR-4): 0.71 µM
Compound: COc1cc2cc(Oc3ccc(NC(=O)Nc4ccc(F)c(C(F)(F)F)c4)cc3)c(C)nc2cc1OCCN1CCOCC1
TGI (K562): 10.3 µM | TGI (RXF 393): 3.94 µM | TGI (786-0 [2]): 3.44 µM | TGI (HCT-15): 4.19 µM | GI50 (SN12C): 2.65 µM | TGI (Hs-578T): 8.9 µM | TGI (OVCAR-8): > 100 µM | TGI (KM12): 10.6 µM | TGI (M14): 3.31 µM | TGI (NCI-H322M): 13.6 µM | TGI (SNB-75): 7.45 µM | GI50 (HOP-92 [4]): 1.31 µM | TGI (HOP-92 [6]): 4.96 µM | GI50 (UACC-257): 1.75 µM | TGI (CAKI-1): 9.55 µM | TGI (CCRF-CEM): 11.5 µM | TGI (MDA-MB-435 [10]): 3.9 µM | TGI (MOLT-4): 11.4 µM | TGI (SW-620): 9.86 µM
